Data: article PMC6335420, “The cell cycle regulator GpsB functions as cytosolic adaptor for multiple cell wall enzymes” (Nature Communications, 2019)
“Also recorded” adds a separate entry of the source. Where two headings read alike, the source gives them in different places. Residues, ends and D or L forms follow the SMILES beside them. *: point of attachment. X1 = CN(C)c1ccc2c(-c3ccc(N4C(=O)CC(*)C4=O)cc3C(=O)[O-])c3ccc(=[N+](C)C)cc-3oc2c1

B1: LmSepF: L. monocytogenes SepF (protein)
chain: MGLSNKFKSFFFLDEEEEYYEEEVAREPEPMQKKTKKEKPNKNRFYAVEEDDAKVVSMQGAQFSSRMVLAEPRVYAEAQELADYLKEYKSVVVNLQRISHDQATRIVDFLSGTVYALGGDIQRVGNNIFLCTPDNVEVDGSISEMLDEQNFM
modifications: left off: T25 fragment of Bordetella pertussis adenylate cyclase (vectors pKT25 and p25-N), end not stated, kept
notes: L. monocytogenes SepF
B2: LmGpsB: L. monocytogenes GpsB (self-interaction) (protein)
chain: MTSEQFEYHLTGKEILEKEFKTGLRGYSPEDVDEFLDMVIKDYSTFTQEIEALQAENIRLVQELDNAPLRTSTQPAPTFQAAAQPAGTTNFDILKRLSNLEKHVFGNKLDDNE
modifications: left off: T18 fragment of Bordetella pertussis adenylate cyclase, C-terminal, kept
B3: LmDivIB: L. monocytogenes DivIB (protein)
chain: MAENKRVISIENRIPELKKYRKKKLVRHLAILIGIFVILIAITLYFLSPLSKLDKIAVSGNKQLTENEVRKESGLEIGEFVIGISNGKTEDALKKNTLIKDATVSKEGLNDVQINITEFKTIGYQQQDGKYYDVLESGIMLTDQPRQFPIGNDLLFQNFKNGKTLEKMVDQINKLPKDVVSSISEVIYSPTKSDKNHIKLYMNDGNQVSADISTFAEKMQHYPAIVAQLAKGQKGVIDIEVGSYFQSYYQQNAEKKATEEAAKEKKETNE
modifications: left off: T25 fragment of Bordetella pertussis adenylate cyclase (vector pKT25), end not stated, kept
notes: L. monocytogenes DivIB
B4: LmMreC: L. monocytogenes MreC (protein)
chain: MPQFFLNKRLIILLISIIVLVALVGFSLRDRENASWPEQFVKDVVGFGENIVAKPTSFISGAVDGVVDLKNTYTENQHLKERLEELAQLESEVADLKKENKDLKESLDITDSIRDYDPLNASVISRNPTNWNDQVEIDKGSSDGVKPDMAVTTPSGLIGKVTTTGAKSATVELLTSSDVKNRVSAKVQGKENAFGIINGYDSDTKLLELKQLPYDMKFKKGQKVVTSGLGGKFPAGIFIGTIEKVETDKMGLSQTAFIKPGADMYDLNHVTVLKRSAEAGTTDDDTTSSDTTGGQ
modifications: left off: T25 fragment of Bordetella pertussis adenylate cyclase (vectors pKT25 and p25-N), end not stated, kept
notes: L. monocytogenes MreC

Key:
BsGpsB1-68 = target: T1, BsGpsB1-68 (Bacillus subtilis, UniProt P0CI74); format: binding; conditions: FP, relative to wild-type peptide
T1 construct: His6 (N, cleaved yes); made in house; host or cells: E. coli BL21(DE3)
From the text: 75 the BsGpsB5-64:BsPBP11-17 complex.

[1] = Circular dichroism of PBP peptides (helicity); format: physicochemical; conditions: for helical residues corresponding to helical content / α-helical content: CD, 222 nm, 4 °C, 20 mM sodium phosphate pH 7.3, 25 μM peptide; for α-helical content: average of at least four measurements
Experimental: CD spectra were recorded on a JASCO J-810 spectropolarimeter with a PTC-4235 Peltier temperature controller using 1 mm path length quartz cuvettes. For full wavelength scans a scan speed of 10 nm^−1min^−1 and a response time of 4 s were used, the final spectra were the average of at least four measurements. BsPBP1_1-32 CD spectra were recorded at 4 °C in a buffer of 20 mM sodium phosphate, pH 7.3 at a peptide concentration of 25 μM. Peptide helical contents were estimated from molar ellipticities at 222 nm using the equation helix = [θ]222 nm / (39,500(1–2.57/n))[78] where n is the number of residues in the peptide. LmPBPA1_1-15 CD spectra were analysed at 40 μM in 20 mM sodium phosphate buffer, pH 7.8, for samples containing 0, 40 and 60% trifluoroethanol (TFE). For samples containing 80% TFE, 5 mM sodium phosphate buffer, pH 7.8, was used. The CD spectra of BsGpsB1-68 proteins were measured at a concentration of 4.5 μM in a buffer of 20 mM sodium phosphate (pH 7.8) 150 mM NaCl. For thermal melt experiments, a response time of 8 s and scan rate of 1 °C^−1min^−1 were used. All thermal melts were reversible as CD spectra recorded before and after the melts in the wavelength range 200–240 nm could be superimposed.

LmGpsB = assay: BACTH (bacterial two-hybrid) interaction with LmGpsB; format: cell-based, Listeria monocytogenes; conditions: E. coli BTH101, 30 °C, photographed after 24 and 48 h; LmPBPA1 variants as T25-PBPA1ΔGT-TP
From the text: The BACTH system[63] was used for analysis of protein:protein interactions. First, LmGpsB was screened against LmPBPA1 (lmo1892) variants to identify residues in LmPBPA1 that are important for binding LmGpsB. To facilitate screening, we used a T25 fragment of Bordetella pertussis adenylate cyclase that had been fused to the N-terminal 91 amino acids of LmPBPA1 to create a T25-LmPBPA1 fusion containing the N-terminal cytoplasmic mini-domain and the transmembrane helix, but lacking lacking the extracellular glycosyltransferase and transpeptidase domains (T25-PBPA1ΔGT-TP) in plasmid pSH437[21]. LmPBPA1 residues that corresponded to the BsGpsB binding motif of BsPBP1 (Thr7, Arg8, Tyr11, Arg12) and additional positively charged amino acids (Lys14, Lys20, Lys21, Lys22, Lys25, Arg26, Lys28 and Arg29) in T25-PBP A1ΔGT-TP were replaced with alanine prior to screening against GpsB-T18. The pSH437 plasmid was mutated by Quikchange mutagenesis using the primer pairs SHW744/SHW754 (T7A, pSH485), SHW746/SHW747 (R8A, pSH486), SHW755/SHW756 (Y11A, pSH487), SHW748/SHW749 (R12A, pSH488), SHW757/SHW758 (K14A, pSH489), SHW759/SHW760 (K20A, pSH490), SHW761/SHW762 (K21A, pSH491), SHW763/SHW764 (K22A, pSH492), SHW765/SHW766 (K25A, pSH493), SHW767/SHW768 (R26A, pSH494), SHW769/SHW770 (K28A, pSH495) and SHW771/SHW772 (R29A, pSH496).
pJR164 and pJR169 were constructed by cloning sepF (primers JR334/JR335 and XbaI/KpnI digestion) into pKT25 and p25-N, respectively. pJR165 and pJR170 were generated by cloning ezrA into pKT25 and p25-N, respectively, using primers JR339/JR340 and XbaI/KpnI for digestion. pJR172 and pJR174 were obtained by cloning zapA into pKT25 and p25-N, respectively, using primers JR337/JR338 and PstI/KpnI. pJR213 was constructed by amplification of divIB with primers JR353/JR354 and cloning into pKT25 using XbaI/KpnI. pJR214 was generated by PCR amplification of divIC with primers JR355/JR356 and cloning into pKT25 using XbaI/KpnI. mreBH was amplified by PCR using oligonucleotides JR368/JR369 and cloned into pKT25 and p25-N using XbaI/KpnI, resulting in pJR233 and pJR236, respectively. pJR242 and pJR243 were obtained by cloning mreC into pKT25 and p25-N, respectively, using primers JR364/JR365 and PstI/KpnI digestion. pbpA2 was cloned into pKT25 using oligonucleotides SHW153/SHW154 and XbaI/KpnI to create pJR250. pbpB1 was amplified with primers SHW157/SHW158 and cloned with SmaI/EcoRI into pKT25, yielding pSH236. pbpB2 was amplified with primers SHW155/SHW156 and cloned into pKT25 after PstI/BamHI digestion, yielding plasmid pSH235. pbpB3 was amplified using primers SHW159/160 and cloned by PstI/BamHI digestion into pKT25, resulting in pSH237. Finally, pSH484 was obtained by removing the N-terminal domain from gpsB present on plasmid pSH226 in a PCR with the primer pair SHW752/SHW753.
Plasmids encoding the respective genes fused to the N- or C-termini of the T18- or the T25-fragment of the Bordetella pertussis adenylate cyclase were co-transformed into E. coli BTH101. Transformants were selected on LB agar plates containing ampicillin (100 µg^−1mL^−1), kanamycin (50 µg^−1mL^−1), X-Gal (40 µg^−1mL^−1) and IPTG (0.1 mM) and photographs were taken after 24 and 48h growth at 30 °C. The BACTH experiments in Fig. 2b and Supplementary Figure 3C, D were repeated at least twice.

T1 sequence (P0CI74 1-68): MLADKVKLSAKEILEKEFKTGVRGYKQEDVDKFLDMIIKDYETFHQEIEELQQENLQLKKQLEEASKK

Molecule	helical residues corresponding to helical content [1]	α-helical content [1] [%]	BACTH interaction with LmGpsB (LmGpsB)	also measured
CSCC[C@H](NC(=O)[C@H](CO)NC(=O)CN)C(=O)N[C@@H](C)C(=O)N[C@@H](CC(=O)O)C(=O)N[C@@H](CCC(N)=O)C(=O)N[C@@H](Cc1ccccc1)C(=O)N[C@@H](CC(N)=O)C(=O)N[C@@H](CO)C(=O)N[C@@H](CCCNC(=N)N)C(=O)N[C@@H](CCC(=O)O)C(=O)N1CCC[C@H]1C(=O)N[C@@H](CCCNC(=N)N)C(=O)N[C@@H](CCCNC(=N)N)C(=O)N[C@@H](CCCCN)C(=O)N[C@@H](C)C(=O)N[C@@H](CC(N)=O)C(=O)N[C@@H](CSC1CC(=O)N(c2ccc(-c3c4ccc(=[N+](C)C)cc-4oc4cc(N(C)C)ccc34)c(C(=O)[O-])c2)C1=O)C(=O)N[C@@H](CCCCN)C(=O)N[C@@H](CO)C(=O)N[C@@H](CO)C(=O)N1CCC[C@H]1C(=O)N[C@@H](CO)C(=O)N1CCC[C@H]1C(=O)N[C@@H](CCCCN)C(=O)N[C@@H](CCCCN)C(=O)NCC(=O)N[C@@H](CCCCN)C(=O)N[C@@H](CCCCN)C(=O)N[C@@H](CCCNC(=N)N)C(=O)N[C@@H](CCCCN)C(=O)N[C@@H](CCCCN)C(=O)NCC(=O)NCC(=O)O (stereo partly shown) [TAMRA-BsPBP11-32 Ala10Pro] (H-GSMADQFNSREPRRKANC(X1)KSSPSPKKGKKRKKGG-OH)	one	2	–	reduction in affinity for BsGpsB1-68 (BsGpsB1-68; listed as BsPBP1_1-32^Ala10Pro): at least 6 fold; reduction in affinity for BsGpsB1-68 (BsGpsB1-68; listed as BsPBP11-32Ala10Pro): > 8 fold; secondary structure by CD (in words) ([1]; LmPBPA1 peptides 40 μM, 20 mM sodium phosphate pH 7.8, TFE 0-80% (5 mM phosphate at 80%), BsPBP1_1-32 peptides 25 μM, pH 7.3, 4 °C): mostly random coil
CSCC[C@H](NC(=O)[C@H](CO)NC(=O)CN)C(=O)N[C@@H](C)C(=O)N[C@@H](CC(=O)O)C(=O)N[C@@H](CCC(N)=O)C(=O)N[C@@H](Cc1ccccc1)C(=O)N[C@@H](CC(N)=O)C(=O)N[C@@H](C)C(=O)N[C@@H](CCCNC(=N)N)C(=O)N[C@@H](CCC(=O)O)C(=O)N[C@@H](C)C(=O)N[C@@H](CCCNC(=N)N)C(=O)N[C@@H](CCCNC(=N)N)C(=O)N[C@@H](CCCCN)C(=O)N[C@@H](C)C(=O)N[C@@H](CC(N)=O)C(=O)N[C@@H](CSC1CC(=O)N(c2ccc(-c3c4ccc(=[N+](C)C)cc-4oc4cc(N(C)C)ccc34)c(C(=O)[O-])c2)C1=O)C(=O)N[C@@H](CCCCN)C(=O)N[C@@H](CO)C(=O)N[C@@H](CO)C(=O)N1CCC[C@H]1C(=O)N[C@@H](CO)C(=O)N1CCC[C@H]1C(=O)N[C@@H](CCCCN)C(=O)N[C@@H](CCCCN)C(=O)NCC(=O)N[C@@H](CCCCN)C(=O)N[C@@H](CCCCN)C(=O)N[C@@H](CCCNC(=N)N)C(=O)N[C@@H](CCCCN)C(=O)N[C@@H](CCCCN)C(=O)NCC(=O)NCC(=O)O (stereo partly shown) [TAMRA-BsPBP11-32 Ser7Ala] (H-GSMADQFNAREARRKANC(X1)KSSPSPKKGKKRKKGG-OH)	~ 6 residues	19	–	reduction in affinity for BsGpsB1-68 (BsGpsB1-68; listed as BsPBP1_1-32^Ser7Ala): at least 6 fold; reduction in affinity for BsGpsB1-68 (BsGpsB1-68; listed as BsPBP11-32Ser7Ala): > 5 fold
B1	–	–	turned blue after one day of incubation	–
B2	–	–	turned blue after one day of incubation	–
B3	–	–	turned blue after 2 days incubation	–
B4	–	–	turned blue after one day of incubation; also recorded: turned blue after 2 days incubation	–
